# Measurements taken from patent US20060069132A1, “Azolecarboxamide herbicides” (priority 2004, published 2006).
# Read-outs that look alike come from different tables or passages of the source.
# Columns and labels:
# [1] = test system: barnyardgrass; experiment: Test A pre-/postemergence herbicide test; format: in vivo, Echinochloa crus-galli
# How it was run: (§1)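 Pre: seeded sandy loam, directed soil spray, compound in non-phytotoxic solvent + surfactant. Post: 1–2-leaf plants (2–10 cm), sprayed to runoff. Greenhouse ~10 d; visual injury vs untreated, 0–100 scale.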
# [2] = test system: velvetleaf; experiment: Test A pre-/postemergence herbicide test; format: in vivo, Abutilon theophrasti
# How it was run: as §1
# [3] = test system: cocklebur; experiment: Test C pre-/postemergence herbicide test; format: in vivo, Xanthium strumarium; settings: for pest or weed control at 62 g/ha / pest or weed control at 125 g/ha / pest or weed control at 250 g/ha: read-out: Plant response rating, Cocklebur
# How it was run: (§2)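 Visual injury scores run from 0 (no effect) to 100 (complete control), assessed relative to untreated controls 12 to 14 days after treatment in the greenhouse. Chemicals were formulated in a non-phytotoxic solvent mixture with surfactant and applied to soil after planting or to emerged plants at the 1- to 4-leaf stage.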
# [4] = test system: kochia; experiment: Test C pre-/postemergence herbicide test; format: in vivo, Kochia scoparia
# How it was run: as §2
# [5] = test system: lambsquarters; experiment: Test C pre-/postemergence herbicide test; format: in vivo, Chenopodium album
# How it was run: as §2
# [6] = test system: morningglory; experiment: Test C pre-/postemergence herbicide test; format: in vivo, Ipomoea coccinea; set-up: key to Plant response rating, Morningglory: 0 = no effect, 100 = complete control
# How it was run: as §2
# [7] = test system: common ragweed; experiment: Test C pre-/postemergence herbicide test; format: in vivo, Ambrosia elatior; set-up: key to Plant response rating, Ragweed: 0 = no effect, 100 = complete control
# How it was run: as §2
# [8] = Postemergence, 500 g ai/ha, 0 to 100 scale, 0 no effect, 100 complete control
# [9] = Postemergence, 2000 g ai/ha, 0 to 100 scale, 0 no effect, 100 complete control
# [10] = Preemergence, 2000 g ai/ha, visual rating, 0 to 100 scale (0 no effect, 100 complete control)
# [11] = preemergence, 500 g ai/ha, visual injury, 0 to 100 scale (0 no effect, 100 complete control)
# [12] = 62 g ai/ha, preemergence, scale 0 to 100
# [13] = 125 g ai/ha, scale 0 (no effect) to 100 (complete control), visual, 12 to 14 days, preemergence
# [14] = 250 g ai/ha, scale 0-100, preemergence
# [15] = Postemergence, 500 g ai/ha, scale 0 to 100
# [16] = Postemergence, 250 g ai/ha, scale 0 to 100, 0 no effect, 100 complete control
# [17] = Preemergence, 500 g ai/ha, scale 0 to 100, 0 no effect, 100 complete control
# [18] = postemergence, 125 g ai/ha, scale 0 to 100
# [19] = postemergence, 62 g ai/ha, scale 0 to 100
# [20] = 500 g ai/ha, scale 0 to 100 (0 no effect, 100 complete control), visual, 12 to 14 days, preemergence
# [21] = Postemergence, 500 g ai/ha, scale 0 to 100, 0 no effect, 100 complete control
# [22] = Xanthium strumarium, pre-emergence, 312 h, 62 g ai/ha, preemergence, scale 0 to 100
# [23] = Xanthium strumarium, pre-emergence, 312 h, 125 g ai/ha, scale 0 (no effect) to 100 (complete control), visual, 12 to 14 days
# [24] = Bassia scoparia, pre-emergence, 62 g ai/ha, preemergence, scale 0 to 100, read-out: Plant response rating, Kochia
# [25] = Bassia scoparia, pre-emergence, 125 g ai/ha, scale 0 (no effect) to 100 (complete control), visual, 12 to 14 days, read-out: Plant response rating, Kochia
# [26] = Chenopodium album, pre-emergence, 62 g ai/ha, preemergence, scale 0 to 100, read-out: Plant response rating, Lambsquarters
# [27] = Chenopodium album, pre-emergence, 125 g ai/ha, scale 0 (no effect) to 100 (complete control), visual, 12 to 14 days, read-out: Plant response rating, Lambsquarters
# [28] = Ipomoea, pre-emergence, 62 g ai/ha, preemergence, scale 0 to 100, read-out: Plant response rating, Morningglory
# [29] = Ipomoea, pre-emergence, 125 g ai/ha, scale 0 (no effect) to 100 (complete control), visual, 12 to 14 days, read-out: Plant response rating, Morningglory
# [30] = Ambrosia artemisiifolia, pre-emergence, 62 g ai/ha, preemergence, scale 0 to 100, read-out: Plant response rating, Ragweed
smiles,measurement,setting,value
C=CCNC(=O)c1cccc(NC(=O)c2cc(C(C)(C)C)nn2C)n1 [Compound 318],Barnyardgrass plant response rating,[1]; [8],65
same,"Plant response rating, Barnyardgrass",[1]; [9],90
same,Barnyardgrass plant response rating,[1]; [10],95
same,Barnyardgrass plant response rating,[1]; [11],65
same,Velvetleaf plant response rating,[2]; [8],40
same,"Plant response rating, Velvetleaf",[2]; [9],50
same,Velvetleaf plant response rating,[2]; [10],80
same,Velvetleaf plant response rating,[2]; [11],30
same,"Plant response rating, Cocklebur",[3]; [12],0
same,"Plant response rating, Cocklebur",[3]; [13],0
same,"Plant response rating, Cocklebur",[3]; [14],0
same,Cocklebur plant response rating,[3]; [15],100
same,"Plant response rating, Cocklebur",[3]; [16],10
same,Cocklebur plant response rating,[3]; [17],0
same,"Plant response rating, Cocklebur",[3]; [18],5
same,"Plant response rating, Cocklebur",[3]; [19],0
same,"Plant response rating, Kochia",[4]; [12],10
same,"Plant response rating, Kochia",[4]; [13],60
same,"Plant response rating, Kochia",[4]; [14],85
same,"Plant response rating, Kochia",[4]; [20],100
same,Kochia plant response rating,[4]; [15],60
same,"Plant response rating, Kochia",[4]; [16],60
same,"Plant response rating, Kochia",[4]; [18],10
same,"Plant response rating, Kochia",[4]; [19],0
same,"Plant response rating, Lambsquarters",[5]; [12],80
same,"Plant response rating, Lambsquarters",[5]; [13],95
same,"Plant response rating, Lambsquarters",[5]; [14],100
same,"Plant response rating, Lambsquarters",[5]; [20],100
same,Lambsquarters plant response rating,[5]; [15],100
same,"Plant response rating, Lambsquarters",[5]; [16],100
same,"Plant response rating, Lambsquarters",[5]; [18],70
same,"Plant response rating, Lambsquarters",[5]; [19],60
same,"Plant response rating, Morningglory",[6]; [12],0
same,"Plant response rating, Morningglory",[6]; [13],0
same,"Plant response rating, Morningglory",[6]; [14],0
same,"Plant response rating, Morningglory",[6]; [20],85
same,Morningglory plant response rating,[6]; [15],0
same,"Plant response rating, Morningglory",[6]; [16],0
same,"Plant response rating, Morningglory",[6]; [18],0
same,"Plant response rating, Morningglory",[6]; [19],0
same,"Plant response rating, Ragweed",[7]; [12],0
same,"Plant response rating, Ragweed",[7]; [14],70
same,"Plant response rating, Ragweed",[7]; [20],70
same,Ragweed plant response rating,[7]; [15],0
same,"Plant response rating, Ragweed",[7]; [16],0
same,"Plant response rating, Ragweed",[7]; [18],0
same,"Plant response rating, Ragweed",[7]; [19],0
CCn1nc(C(C)(C)C)cc1C(=O)Nc1cc(OC(F)(F)F)ccc1F [Compound 338],Barnyardgrass plant response rating,[1]; [8],20
same,"Plant response rating, Barnyardgrass",[1]; [9],35
same,Barnyardgrass plant response rating,[1]; [10],95
same,Barnyardgrass plant response rating,[1]; [11],60
same,Velvetleaf plant response rating,[2]; [8],40
same,"Plant response rating, Velvetleaf",[2]; [9],60
same,Velvetleaf plant response rating,[2]; [10],50
same,Velvetleaf plant response rating,[2]; [11],20
same,"Plant response rating, Cocklebur",[3]; [16],5
same,"Plant response rating, Cocklebur",[3]; [21],5
same,"Plant response rating, Cocklebur",[3]; [18],0
same,"Plant response rating, Cocklebur",[3]; [19],0
same,"Plant response rating, Kochia",[4]; [16],90
same,"Plant response rating, Kochia",[4]; [21],90
same,"Plant response rating, Kochia",[4]; [18],60
same,"Plant response rating, Kochia",[4]; [19],50
same,"Plant response rating, Lambsquarters",[5]; [16],75
same,"Plant response rating, Lambsquarters",[5]; [21],75
same,"Plant response rating, Lambsquarters",[5]; [18],5
same,"Plant response rating, Lambsquarters",[5]; [19],0
same,"Plant response rating, Morningglory",[6]; [16],40
same,"Plant response rating, Morningglory",[6]; [21],50
same,"Plant response rating, Morningglory",[6]; [18],0
same,"Plant response rating, Morningglory",[6]; [19],0
same,"Plant response rating, Ragweed",[7]; [16],5
same,"Plant response rating, Ragweed",[7]; [21],10
same,"Plant response rating, Ragweed",[7]; [18],5
same,"Plant response rating, Ragweed",[7]; [19],0
"CCNC(=O)c1cccc(NC(=O)c2nn(C(C)(C)C)cc2Br)c1 [Compound 221, 4-bromo-1-(1,1-dimethylethyl)-N-[3-[(ethylamino)carbonyl]phenyl]-1H-pyrazole-3-carboxamide]",pest or weed control at 62 g/ha,[3]; [22],0%
same,pest or weed control at 125 g/ha,[3]; [23],0%
same,pest or weed control at 250 g/ha,"[3]; Xanthium strumarium, pre-emergence, 312 h, 250 g ai/ha, scale 0-100",0%
same,pest or weed control at 62 g/ha,[4]; [24],0%
same,pest or weed control at 125 g/ha,[4]; [25],0%
same,pest or weed control at 250 g/ha,"[4]; Bassia scoparia, pre-emergence, 250 g ai/ha, scale 0-100, read-out: Plant response rating, Kochia",65%
same,pest or weed control at 500 g/ha,"[4]; Bassia scoparia, pre-emergence, 500 g ai/ha, scale 0 to 100 (0 no effect, 100 complete control), visual, 12 to 14 days, read-out: Plant response rating, Kochia",100%
same,pest or weed control at 62 g/ha,[5]; [26],0%
same,pest or weed control at 125 g/ha,[5]; [27],20%
same,pest or weed control at 250 g/ha,"[5]; Chenopodium album, pre-emergence, 250 g ai/ha, scale 0-100, read-out: Plant response rating, Lambsquarters",90%
same,pest or weed control at 500 g/ha,"[5]; Chenopodium album, pre-emergence, 500 g ai/ha, scale 0 to 100 (0 no effect, 100 complete control), visual, 12 to 14 days, read-out: Plant response rating, Lambsquarters",100%
same,pest or weed control at 62 g/ha,[6]; [28],0%
same,pest or weed control at 125 g/ha,[6]; [29],0%
same,pest or weed control at 250 g/ha,"[6]; Ipomoea, pre-emergence, 250 g ai/ha, scale 0-100, read-out: Plant response rating, Morningglory",0%
same,pest or weed control at 500 g/ha,"[6]; Ipomoea, pre-emergence, 500 g ai/ha, scale 0 to 100 (0 no effect, 100 complete control), visual, 12 to 14 days, read-out: Plant response rating, Morningglory",0%
same,pest or weed control at 62 g/ha,[7]; [30],0%
same,pest or weed control at 500 g/ha,"[7]; Ambrosia artemisiifolia, pre-emergence, 500 g ai/ha, scale 0 to 100 (0 no effect, 100 complete control), visual, 12 to 14 days, read-out: Plant response rating, Ragweed",60%
"CCn1nc(C(C)(C)C)cc1C(=O)Nc1cc(C(=O)N(C)C)ccn1 [Compound 156, 2-[[[3-(1,1-dimethylethyl)-1-ethyl-1H-pyrazol-5-yl]carbonyl]amino]-N,N-dimethyl-4-pyridinecarboxamide]",pest or weed control at 62 g/ha,[3]; [22],63%
same,pest or weed control at 125 g/ha,[3]; [23],98%
same,pest or weed control at 250 g/ha,"[3]; Xanthium strumarium, pre-emergence, 312 h, 250 g ai/ha, scale 0 to 100 (0 no effect, 100 complete control), visual, 12 to 14 days",100%
same,pest or weed control at 500 g/ha,"[3]; Xanthium strumarium, pre-emergence, 312 h, Preemergence, 500 g ai/ha, scale 0 to 100, 0 no effect, 100 complete control, read-out: Cocklebur plant response rating",100%
same,pest or weed control at 62 g/ha,[4]; [24],95%
same,pest or weed control at 125 g/ha,[4]; [25],95%
same,Kochia plant response rating,[4]; [17],100
same,pest or weed control at 62 g/ha,[5]; [26],100%
same,pest or weed control at 125 g/ha,[5]; [27],100%
same,Lambsquarters plant response rating,[5]; [17],100
same,pest or weed control at 62 g/ha,[6]; [28],8%
same,pest or weed control at 125 g/ha,[6]; [29],60%
same,Morningglory plant response rating,[6]; [17],100
same,pest or weed control at 62 g/ha,[7]; [30],90%
same,pest or weed control at 125 g/ha,"[7]; Ambrosia artemisiifolia, pre-emergence, 125 g ai/ha, scale 0 (no effect) to 100 (complete control), visual, 12 to 14 days, read-out: Plant response rating, Ragweed",100%
same,Ragweed plant response rating,[7]; [17],100
Cc1nn(C(C)(C)C)nc1C(=O)Nc1cccc(C(=S)N(C)C)c1 [Compound 419],"Plant response rating, Cocklebur",[3]; [12],0
same,"Plant response rating (0 = no effect, 100 = complete control), Cocklebur","[3]; 125 g ai/ha, preemergence",25
same,"Plant response rating, Cocklebur",[3]; [14],45
same,"Plant response rating, Cocklebur",[3]; [20],70
same,"Plant response rating, Kochia",[4]; [12],90
same,"Plant response rating (0 = no effect, 100 = complete control), Kochia","[4]; 125 g ai/ha, preemergence",95
same,"Plant response rating, Kochia",[4]; [14],100
same,"Plant response rating, Kochia",[4]; [20],100
same,"Plant response rating, Lambsquarters",[5]; [12],95
same,"Plant response rating (0 = no effect, 100 = complete control), Lambsquarters","[5]; 125 g ai/ha, preemergence",95
same,"Plant response rating, Lambsquarters",[5]; [14],100
same,"Plant response rating, Lambsquarters",[5]; [20],100
same,"Plant response rating, Morningglory",[6]; [12],15
same,"Plant response rating (0 = no effect, 100 = complete control), Morningglory","[6]; 125 g ai/ha, preemergence",25
same,"Plant response rating, Morningglory",[6]; [20],100
same,"Plant response rating, Ragweed",[7]; [12],10
same,"Plant response rating (0 = no effect, 100 = complete control), Ragweed","[7]; 125 g ai/ha, preemergence",15
same,"Plant response rating, Ragweed",[7]; [20],100
